Reference: patent publication US10323254B2, “Method for regulating plant growth” (RIKEN, priority 2015, dated 2019)
Entries after “also recorded” stand apart in the source; their conditions may differ.

Tested on: BIL1-GFP
Test: Fluorescence microscopy of BIL1-GFP localization in root cells
Format: in vivo, Arabidopsis thaliana
Settings: for punctate BIL1-GFP signals: root cells
Method: The results are presented as the mean±s.d. (n=61, *P<0.01, Student's t-test). […] The results are presented as the mean±s.d. (n=27, *P<0.01, Student's t-test).
The plants that were transformed with the CaMV35S-BSS1-GFP construct BSS1(-GFP)-OX and the CaMV35S-BIL1-GFP construct BIL1-GFP-OX were observed via confocal laser scanning microscopy with a BX60 fluorescence microscope (Olympus) equipped with a Model CSU10 confocal scanner (Yokogawa Electric) and LSM700 (Zeiss).
The images were analyzed using ImageJ software. To measure the ratio of the nuclear and cytosolic signals of BIL1-GFP for each cell, the signal intensities in the nucleus and cytosol were calculated from the mean of the intensity in each area. The nuclear to cytosolic signal ratio was then calculated for each cell. The average nuclear/cytosolic signal ratio and standard error were calculated from measurements of at least 54 cells from each line (FIG. 9B). Line scan measurements from the vacuole to the nucleus through the cytosol were performed, and representative plot profiles of sample measurements are presented in FIG. 5C.

CC(O)(c1ccccc1)C(Cc1ccc(Cl)cc1)n1cncn1 (stereo not shown) [Brz, brassinazole]
enhanced nuclear BIL1-GFP signal (bop1-3 bop2-1 background, root cells of 4-day-old seedlings, 3 μM Brz): strongly maintained | punctate BIL1-GFP signals (bop1-3 bop2-1 plants, treated with 3 μM Brz): not detected | nuclear-to-cytosolic ratio of the BIL1-GFP signal (wild-type background, root cells of 4-day-old seedlings, 3 μM Brz): decreased | punctate BIL1-GFP signals (wild-type background, after 3 μM Brz treatment): many punctate BIL1-GFP signals in the cytosol; also recorded: observed
